Measurements reported in ChEMBL document CHEMBL3286140, “Synthesis and biological evaluation of salpichrolide analogs as antiestrogenic agents” (Eur J Med Chem, 2014).
Activity calls are given as the source filed them. The rule behind the calls is not given here.

Experiments:
MDA-MB-231 [1] = assay: Cytotoxicity against ERalpha negative human MDA-MB-231 cells at 10 nM and 1 uM; format: cell-based; conditions: mda-mb-231, 0.01 µM
MCF7 [2] = assay: Inhibition of 17beta-estradiol-induced in ERalpha positive human MCF7 cells proliferation assessed as [3H]-thymidine incorporation after 72 hrs by liquid scintillation counting; format: functional, cell-based
MCF7 [3] = assay: Cytotoxicity against ERalpha positive human MCF7 cells at 10 nM and 1 uM; format: cell-based; conditions: mcf7, 0.01 µM
MCF7 [4] = assay: Inhibition of 17beta-estradiol-induced in ERalpha positive human MCF7 cells proliferation assessed as [3H]-thymidine incorporation at 100 nM after 72 hrs by liquid scintillation counting; format: functional, cell-based
MDA-MB-231 [5] = assay: Inhibition of 17beta-estradiol-induced in ERalpha negative human MDA-MB-231 cells proliferation assessed as [3H]-thymidine incorporation after 72 hrs by liquid scintillation counting; format: functional, cell-based
MCF7 [6] = assay: Inhibition of 17beta-estradiol-induced in ERalpha positive human MCF7 cells proliferation assessed as [3H]-thymidine incorporation at 1 uM after 72 hrs by liquid scintillation counting; format: functional, cell-based
MCF7 [7] = assay: Inhibition of 17beta-estradiol-induced in ERalpha positive human MCF7 cells proliferation assessed as [3H]-thymidine incorporation at 10 nM after 72 hrs by liquid scintillation counting; format: functional, cell-based

SMILES: C[C@@H](c1cc(O)c2c(c1)CC[C@H]1[C@H]2C[C@@H]2O[C@@]23CC=CC(=O)[C@]13C)[C@@H]1C[C@@H]2O[C@@H]2[C@H](O)O1 [SALPICHROLIDE G]
- Activity (MDA-MB-231 [1]): Toxic
- IC50 (MCF7 [2]): 140 nM
- Activity (MCF7 [3]): Toxic

SMILES: C[C@@H](c1ccc2c(c1)CC[C@H]1[C@H]2C[C@@H]2O[C@@]23CC=C[C@H](O)[C@]13C)[C@H]1C[C@]2(C)O[C@]2(C)[C@H](O)O1
- IC50 (MCF7 [2]): 18 nM

SMILES: CC(=O)c1ccc2c(c1)CC[C@H]1[C@H]2CC[C@H]2CC=CC(=O)[C@@]21C
- inhibition (MCF7 [4]): Active
- IC50 (MCF7 [2]): 50 nM
- inhibition (MDA-MB-231 [5]): inactive

SMILES: CC(=O)c1ccc2c(c1)CC[C@H]1[C@H]2C[C@H]2O[C@]23C[C@@H](O)CC[C@]13C
- inhibition (MCF7 [6]): inactive

SMILES: CC(=O)c1ccc2c(c1)CC[C@H]1[C@H]2C[C@@H]2O[C@@]23C[C@@H](O)CC[C@]13C
- inhibition (MCF7 [2]): inactive

SMILES: CC(=O)c1ccc2c(c1)CC[C@H]1[C@H]2CC[C@H]2CC=C[C@H](O)[C@@]21C
- inhibition (MCF7 [6]): inactive

SMILES: C[C@]12CC[C@@H]3c4ccc(O)cc4C[C@@H](CCCCCCCCC[S+]([O-])CCCC(F)(F)C(F)(F)F)[C@H]3[C@@H]1CC[C@@H]2O (stereo not given in full) [FULVESTRANT]
- inhibition (MCF7 [7]): Active
- IC50 (MCF7 [2]): 1.9 nM

SMILES: CC(=O)c1ccc2c(c1)CC[C@H]1[C@H]2CC[C@H]2C[C@@H](O)CC[C@@]21C
- inhibition (MCF7 [4]): Active
- IC50 (MCF7 [2]): 330 nM
- inhibition (MDA-MB-231 [5]): inactive
